Structures can show the parent of a compound that is named as a salt.
Columns and labels:
[1] = assay type: physicochemical
From the text: Crystalline form B of the HCl salt of N-(1-methyl-5-(trifluoromethyl)-1H-pyrazol-3-yl)-5-((6-((methylamino)methyl)pyrimidin-4-yl)oxy)-1H-indole-1-carboxamide was obtained using the same procedure as in Example 5 above.

[2] = Control incubations for chemical stability in incubation media; assay type: physicochemical; details: 10 μmol/L, 37° C., incubation media in the absence of hepatocytes or liver microsomes
Method: (§1) To check the chemical stability of [^14C]N-(1-methyl-5-(trifluoromethyl)-1H-pyrazol-3-yl)-5-(6-((methylamino)methyl)pyrimidin-4-yloxy)-1H-indole-1-carboxamide under the incubation conditions, the compound was incubated at a concentration of 10 μmol/L in HepatoZYME without hepatocytes. A second series of control incubations was performed with hepatocytes of all species in the absence of the test compound to investigate the effect of the latter on the viability. These experiments were performed in a 12×6 mL MultiWell™ plate (Art. 393503, Beckton Dickinson).
Microsomal incubations for metabolite profiles were performed at 10 μmol/L of [^14C]N-(1-methyl-5-(trifluoromethyl)-1H-pyrazol-3-yl)-5-(6-((methylamino)methyl)pyrimidin-4-yloxy)-1H-indole-1-carboxamide (approx. 50% radiolabeled) with one time point investigated (60 min). Incubations were performed at 37° C. in 0.1 mol/L sodium phosphate buffer pH 7.4. The final concentrations in the incubation cocktail were: 4 mmol/L UDPGA (Sigma-Aldrich), 1 mmol/L β-NADPH (Sigma-Aldrich), 5 mmol/L MgCl2, and 60 μg alamethicin (Sigma-Aldrich) per mg microsomal protein. The system was left to incubate for 10 min before adding the test compound to allow the pore formation with the alamethicin. […]

human hepatocytes = assay: Hepatocyte viability during incubation (Guava ViaCount); assay type: cell-based; details: 10 μmol/L, percent viable cells relative to total cells, controls without compound 4-21%
Method: (§2) After thawing the cryopreserved hepatocytes, the viable cells were enriched by centrifugation in HepatoZYME cell culture medium (Gibco Invitrogen). For this purpose, the cells were added to 45 mL of a 37° C. warm HepatoZYME, and centrifuged at room temperature, at 50 g for 5 min. The supernatant containing dead cells was discarded and the cells in the pellet were re-suspended in HepatoZYME.
(§3) The viability of the re-suspended hepatocytes was determined by a Guava EasyCyte™ Mini system using the ViaCount® assay as described by the supplier (Guava Technologies, Hayward, Calif., USA). After cell counting, the cell concentration was adjusted to approx. 1·10^6 viable cells/mL by adding HepatoZYME. Subsequently, the incubations were started by adding [^14C]N-(1-methyl-5-(trifluoromethyl)-1H-pyrazol-3-yl)-5-(6-((methylamino)methyl)pyrimidin-4-yloxy)-1H-indole-1-carboxamide and non-labeled N-(1-methyl-5-(trifluoromethyl)-1H-pyrazol-3-yl)-5-(6-((methylamino)methyl)pyrimidin-4-yloxy)-1H-indole-1-carboxamide as a solution in DMSO. The final concentration of DMSO in the incubations was 0.1% (v/v).
as §1
(§4) The incubations were performed at 37° C. under a humidified atmosphere of 95% relative humidity and 5% CO2 in a Heraeus incubator/cytoperm (Kendro Laboratory Products AG, Zürich, Switzerland). During the incubations, the plates and flasks were shaken at 300 strokes per minute. The viability of the hepatocytes was determined after 6 h (end of incubation).

rat hepatocytes = assay: as above; assay type: cell-based; details: 10 μmol/L, percent viable cells relative to total cells, controls without compound 4-21%
Method: as §2, §3, §1, §4

monkey hepatocytes = assay: as above; assay type: cell-based; details: 10 μmol/L, percent viable cells relative to total cells, controls without compound 4-21%
Method: as §2, §3, §1, §4

rabbit hepatocytes = assay: as above; assay type: cell-based; details: 10 μmol/L, percent viable cells relative to total cells, controls without compound 4-21%
Method: as §2, §3, §1, §4

Row | SMILES | Stability of crystalline form [1] | Chemical stability under the incubation conditions [2] | Viability at 6 h (human hepatocytes) [%] | Viability at 6 h (rat hepatocytes) [%] | Viability at 6 h (monkey hepatocytes) [%] | Viability at 6 h (rabbit hepatocytes) [%]
1 | CNCc1cc(Oc2ccc3c(ccn3C(=O)Nc3cc(C(F)(F)F)n(C)n3)c2)ncn1 [Form B, N-(1-methyl-5-(trifluoromethyl)-1H-pyrazol-3-yl)-5-((6-((methylamino)methyl)pyrimidin-4-yl)oxy)-1H-indole-1-carboxamide (HCl Salt) Form B] | transient form that converts back to Form A |  |  |  |  | 
2 | CNCc1cc(Oc2ccc3c(ccn3C(=O)Nc3cc(C(F)(F)F)n(C)n3)c2)ncn1 [N-(1-methyl-5-(trifluoromethyl)-1H-pyrazol-3-yl)-5-((6-((methylamino)methyl)pyrimidin-4-yl)oxy)-1H-indole-1-carboxamide] |  | confirmed the stability of the compound | 25 | 22 | 42 | 8

— patent US9604969B2, “Pyrimidin-4-yl)oxy)-1h-indole-1-carboxamide derivatives and use thereof” (NOVARTIS AG, priority 2013, dated 2017)
